Source: patent US7084167B2, “Calcium receptor active molecules and method for preparing same” (Centre National de la Rechereche Scientifique (CNRS), priority 2000, dated 2006)

Key:
CaSR = target: T1, CaSR (Rattus norvegicus, UniProt P48442); assay: Accumulation of tritiated inositol phosphates in CHO(CaSR) cells; type: cell-based; conditions: for activation at 10 µM / activity at 10 µM: compound 10 μM; for activation at 10 µM: in the presence of 2 mM Ca2+; for activation at 10 µM / activation at 1 µM: CHO(CaSR) cells, read-out: Accumulation of (3H)-IP % of the 10 mM Ca2+ response ± S.E.; for activity at 10 µM: basal level at 2 mM Ca2+ = 100%, read-out: Accumulation of (1H)-IP % of basal level, CHO (CaSR); for activity greater than that of calcium (10 mM) / activation at 1 µM: compound 1 μM
T1 construct: expressed in transfected cells; host or cells: CHO (Chinese hamster ovary) cells, CHO(CaSR)
T1 sequence (P48442 20-1079): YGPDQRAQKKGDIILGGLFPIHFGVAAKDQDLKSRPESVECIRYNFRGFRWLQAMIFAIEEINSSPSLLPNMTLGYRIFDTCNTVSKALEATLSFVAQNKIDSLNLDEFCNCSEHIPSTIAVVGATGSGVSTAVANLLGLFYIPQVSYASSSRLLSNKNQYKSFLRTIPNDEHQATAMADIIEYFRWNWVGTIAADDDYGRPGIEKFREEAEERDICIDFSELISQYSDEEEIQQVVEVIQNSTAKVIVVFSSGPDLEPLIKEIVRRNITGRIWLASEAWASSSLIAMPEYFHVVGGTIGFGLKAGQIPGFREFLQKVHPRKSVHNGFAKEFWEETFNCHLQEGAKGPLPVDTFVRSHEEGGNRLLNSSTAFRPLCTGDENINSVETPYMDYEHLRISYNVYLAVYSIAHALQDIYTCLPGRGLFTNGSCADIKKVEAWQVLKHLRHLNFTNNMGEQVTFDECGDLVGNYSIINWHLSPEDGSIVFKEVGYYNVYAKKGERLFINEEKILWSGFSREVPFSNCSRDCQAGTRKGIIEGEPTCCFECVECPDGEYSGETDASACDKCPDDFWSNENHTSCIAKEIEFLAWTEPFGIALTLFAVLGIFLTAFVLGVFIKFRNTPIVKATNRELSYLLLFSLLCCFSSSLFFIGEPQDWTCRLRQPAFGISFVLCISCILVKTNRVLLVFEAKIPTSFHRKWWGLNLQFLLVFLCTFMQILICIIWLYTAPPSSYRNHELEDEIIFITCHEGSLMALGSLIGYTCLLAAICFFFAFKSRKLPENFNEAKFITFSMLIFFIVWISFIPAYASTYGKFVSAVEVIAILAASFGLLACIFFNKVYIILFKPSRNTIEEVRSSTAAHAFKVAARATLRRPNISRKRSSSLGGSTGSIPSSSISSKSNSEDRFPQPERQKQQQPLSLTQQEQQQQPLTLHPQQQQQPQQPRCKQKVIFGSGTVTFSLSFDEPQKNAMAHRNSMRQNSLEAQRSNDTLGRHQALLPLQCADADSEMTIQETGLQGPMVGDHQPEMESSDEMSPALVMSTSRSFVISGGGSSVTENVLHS
Excerpt: The complementary DNA encoding rat CaSR has been isolated from a rat striatum cDNA library (Ruat et al, Proc. Natl. Acad. Sci., 1995). This receptor is identical, in terms of its amino acid sequence, to that expressed in the other tissues. Transfected Chinese hamster ovary (CHO) cells expressing rat CaSR (CHO(CaSR)) have been characterized and the chemical signals (second messengers) induced by activation of this receptor have been analyzed. Thus, a biochemical test for measuring the accumulation of tritiated inositol phosphates, [^3H]IPs, in response to activation of the receptor has been developed (Ruat et al, J. Biol. Chem., 1996; Ferry et al, Biochem. Biophys. Res. Common., 1997).
The calcimimetic activity of the compounds was estimated by measuring the accumulation of tritiated inositol phosphates, […] Ca^2+, in CHO(CaSR) cells (Ferry et al, Biochem Biophys Res Commun, 1997).
This activation was compared with that induced by the compound NPS-R-568, a reference calcimimetic used at a concentration of 10 μM (Table 1) (Ferry et al, Biochem Biophys Res Commun, 1997; Nemeth et al, Proc Natl Acad Sci USA, 1997).
The calcimimetic activity of the PHD/AK compounds is compared with that of a reference compound, NPS-R-568, used at the same concentration and under the same experimental conditions. This activity is expressed as a percentage of the activity of 10 mM of Ca^2+. The means±standard errors of the means of 2 to 5 independent manipulations are indicated. The experiments were carried out in the presence of 2 mM of Ca^2+.
(§1) The accumulation of tritiated inositol phosphates is expressed as a percentage of the basal level observed in the presence of 2 mM Ca^2+ (100%) in CHO (WT^+) or CHO(CaSR) cells.

CHO (WT*) cells = assay: Accumulation of tritiated inositol phosphates in control CHO(WT*) cells not expressing the CaSR; type: cell-based, Chinese hamster; conditions: Cricetulus griseus, 1 h; compound 10 μM; basal level at 2 mM Ca2+ = 100%; read-out: Accumulation of (3H)-IP % of basal level, CHO (WT*)
Experimental: as §1

[1] = target: T2, receptors of the parathyroid (Rattus norvegicus, UniProt P48442); conditions: rats; cited from earlier work
T2 construct: from tissue; host or cells: parathyroid gland of rats (in vivo)
T2 sequence (P48442 20-1079): T1 sequence (P48442 20-1079)

[2] = rats; cited from earlier work
[3] = patients (men) suffering from chronic renal failure; cited from earlier work
[4] = oral, menopausal women with primary hyperparathyroidism; cited from earlier work
[5] = clinical trials phase I-II; cited from earlier work

SMILES | activation at 10 µM (CaSR) [%] | activity at 10 µM (CaSR) [%] | activity greater than that of calcium (10 mM) (CaSR) | activation at 1 µM (CaSR) [%] | activity at 10 µM (CHO (WT*) cells) [%] | further results
CC(NCc1cc2ccccc2n1C)c1cccc2ccccc12 (stereo not drawn) [AK 43] | 79 ± 13 | 401 ± 16 |  |  | 109 ± 2 | 
COc1cccc([C@@H](C)NCCCc2ccccc2)c1 [NPS R-467] |  |  |  |  |  | selectivity, receptors of the parathyroid compared with those of the thyroid gland [1]: more selective
COc1cccc([C@@H](C)NCCCc2ccccc2Cl)c1.Cl [NPS R-568] | 106 ± 15 | 454 ± 33 |  |  | 110 ± 9 | osteitis fibrosa [2]: reduces or eliminates osteitis fibrosa; PTH concentrations [3]: reduces PTH concentrations; concentrations of PTH [4]: lower; concentrations of free serum Ca2+ ions [4]: lower; bioavailability [5]: low
C[C@@H](NCc1cc2ccccc2[nH]1)c1cccc2ccccc12.Cl.Cl [PHD 337-R, (R)-N-[(indole-2-yl)methyl]-N-[1-(1-naphthyl)ethyl]amine.HCl] |  | 588 ± 129 | 50% | 73 ± 10 | 130 ± 9 | melting point: 204 °C
C[C@H](NCc1cc2ccccc2[nH]1)c1cccc2ccccc12 [PHD 337-S] | 32 ± 5 | 225 ± 7 |  | 3 ± 2 | 132 ± 1 | 

More lines, main results first:

activation at 10 µM (CaSR) [%] | activity at 10 µM (CaSR) [%] | activity greater than that of calcium (10 mM) (CaSR) | activation at 1 µM (CaSR) [%] | SMILES | activity at 10 µM (CHO (WT*) cells) [%] | further results
90 to 100 | 444 ± 101 | 50% | 69 ± 9 | CC(NCc1cc2ccccc2[nH]1)c1cccc2ccccc12.Cl.Cl (stereo not drawn) [PHD 337] | 147 ± 14 | 
54 ± 5 | 202 ± 9 |  |  | COc1ccc(S(=O)(=O)n2c(CNC(C)c3cccc4ccccc34)cc3ccccc32)cc1OC (stereo not drawn) [PHD 338] | 111 ± 10 | 
90 to 100 | 482 ± 58 | 50% | 76 ± 1 | COc1cccc([C@@H](C)NCc2cc3ccccc3[nH]2)c1 [PHD 356] | 151 ± 7 | 
55 ± 5 | 303 ± 42 |  |  | COc1ccc2[nH]c(CNC(C)c3cccc4ccccc34)cc2c1 (stereo not drawn) [PHD 359] | 117 ± 8 | 
87 ± 7 | 420 ± 70 |  |  | CC(NCc1cc2cc(F)ccc2[nH]1)c1cccc2ccccc12 (stereo not drawn) [PHD 361] | 133 ± 3 | 
60 ± 1 | 325 ± 67 | less active | 6 ± 3 | CC(NCc1cc2cc(Cl)ccc2[nH]1)c1cccc2ccccc12.Cl.Cl (stereo not drawn) [PHD 363] | 125 ± 12 | 
77 ± 1 | 388 ± 85 |  |  | CC(NCC1Cc2ccccc2N1)c1cccc2ccccc12 (stereo not drawn) [PHD 368] | 126 ± 6 | 
